Results published in patent US20170240592A1, “GADD45BETA/MKK7 INHIBITOR FOR THE TREATMENT OF A RESISTANT HAEMATOLOGICAL MALIGNANCY” (IMPERIAL INNOVATIONS LIMITED, priority 2014, published 2017).

Experiments:
plasma stability (human) = type: in vitro ADME
Procedure: In vitro pharmacokinetic assays were performed according to established, in-house protocols and included: plasma stability (human), thermodynamic solubility (PBS pH 7.4, at 37° C. for 14 days), microsomal stability (human), plasma protein binding (PPB; mouse and human), and distribution coefficient (Log D). In vivo pharmacokinetic analyses were also performed at Cyprotex according to established, in-house protocols. Briefly, the peptides were dissolved in PBS and administered by single intravenous injection to CD1 male mice at the dose of 10 mg/kg (25-30 g of total body weight; n=3 mice per time point per compound). Blood samples were collected in heparinized tubes at up to 7 time points after this injection (i.e. 0.08, 0.25, 0.5, 1, 2, 4 and 8 hr), and the plasma concentrations of the test peptide were determined at each time point by LC-MS/MS, using a five-point standard curve covering a peptide concentration range from 3 to 3,000 ng/mL. Standard curves were prepared using blank plasma matrices and treated in the same manner as the test samples. […] Values were calculated from the data of the peptide plasma concentration versus time curves using a non-compartmental model analysis, as described elsewhere (Groulx, 2006; Landaw and Di Stefano 3rd, 1982). […]

[1] = test system: subcutaneous U266 myeloma xenografts; experiment: plasmacytoma model, subcutaneous U266 myeloma xenografts; type: in vivo, NOD/SCID mice; conditions: for effect on established subcutaneous myeloma xenografts (tumour volume): to day 28
Procedure: (§1) Values denote means±SEM (n=16). ***, p<0.001.
(§2) Mice were housed in the animal facilities at Hammersmith. All experiments were conducted under PPL 70/6874, after approval by the Imperial College Ethical Review Process and the Home Office. For the plasmacytoma model, NOD/SCID mice (NOD.CB17-Prkdc^scid/IcrCrl; Charles River) were injected subcutaneously with 1.0×10^7 U266 or KMS-11 multiple myeloma cells, and then randomized into treatment groups and treated by infusion, as shown. Tumour volumes were measured as described in Mauro et al., 2011. For the orthotopic multiple myeloma model, mice of the same strain were sub-lethally irradiated and then injected intravenously with 1.0×10^7 KMS-12-BM multiple myeloma cells, as described in Rabin et al., 2007). Mice were then randomized into treatment groups and treated by infusion for 8 weeks, as shown. Animals were monitored daily and euthanized on day 161 of treatment start or when they reached any of the end-points in the PPL. Additional details are provided in the Supplemental Experimental Procedures.
(§3) Mice were housed in the animal facilities at the Hammersmith Campus, Imperial College London, and experiments were conducted under the Home Office Authority (PPL 70/6874). The PPL was reviewed by the Imperial College Ethical Review Process (ERP) and the Home Office. For experiments in the subcutaneous xenograft models (FIGS. 16-17), 6 to 8-week old male NOD/SCID mice (NOD.CB17-Prkdc^scid/IcrCrl; Charles River) were injected intraperitoneally with anti-CD122 monoclonal antibody (TM-β1 clone; 200 μg/mouse) (Tanaka et al., 1991) and, 24 hr later, subcutaneously in the left flank with 1.0×10^7 U266 or KMS-11 human multiple myeloma cells resuspended in 200 μL of sterile PBS and Matrigel (1:1) (BD Biosciences), using a 1-mL Luer-Lok™ Tip syringe (BD Biosciences) with a 25-gauge needle (Bhutani et al., 2007). U266 and KMS-11 cells were harvested from exponentially growing cultures, washed once with serum-free medium, and resuspended in PBS immediately before injection (Bhutani et al., 2007). The anti-CD122 antibody was affinity purified using HiTrap Protein G HP columns (GE Healthcare), according to the manufacturer's instructions. One week after injection of the cells, when tumour volumes had reached approximately 100 mm^3 (U266 cells) or tumours had yet to be palpable (KMS-11 cells), mice were randomized into treatment groups (n=16 or n=4 per group, respectively; day 0) (Bhutani et al., 2007) and, then, treated by continual infusion of DTP3 at a dose of 14.5 mg/kg/d, yielding a plasma concentration of 0.70±0.09 μM (SEM; n=16), or PBS. Treatments were administered using Alzet osmotic pumps (model 1004; 28-day delivery at the rate of […]; Charles River), implanted surgically subcutaneously into the right flank of each mouse, according to the manufacturer's instructions (Gullapalli et al., 2012). For systemic administration, DTP3 was dissolved at the concentration of 147 mg/mL in PBS, and mice were euthanized on day 28 of the start of treatment with CO2. Tumour diameters were measured at the indicated times using a vernier calliper, and volumes were estimated from calliper measurements using the following equation: volume=A×B^2/2 (where A is the larger diameter, and B is the smaller diameter of the tumour) (Mauro et al., 2011). Results were reproduced at least twice. The plasma concentration of DTP3 was measured at the steady state by LC-MS/MS at Cyprotex, as described above.

[2] = as above; type: in vivo, NOD/SCID mice; conditions: male, NOD/SCID (NOD.CB17-Prkdc^scid/IcrCrl), mouse, plasma, sc, 14.5 mg/kg/day; continual infusion via osmotic pumps, 14.5 mg/kg/d; SEM, n=16; read-out: plasma concentration at the steady state
Procedure: as §1, §2, §3

U266 cells = experiment: [3H]thymidine incorporation assay, DTP3 and bortezomib as single agents or in combination, U266; conditions: FA 0.5; DTP3 3 nM for 6 days, bortezomib last 48 hr; Chou-Talalay
Procedure: (§4) Treatments with DTP3 were for 6 days; bortezomib was added to the cell cultures 48 hr prior to the measurement of cell viability. For the combination treatment, DTP3 was used at the concentrations of 3 nM in U266 cells and of 10 nM in KMS-12 cells, whereas bortezomib was used at increasing concentrations, as shown.
Viability data from the experiment shown in FIG. 12 were converted into values representing the fraction of cells affected (FA) equaling 0.5 in the drug-treated cultures compared with untreated cultures, and the interaction of DTP3 with bortezomib was analysed according to the Chou-Talalay method (Chou, 2006). Also shown are the drug concentrations giving the FA value of 0.5 and the description of the CI. […]
(§5) [^3H]Thymidine incorporation assays were performed using standard protocols (Griffiths and Sundaram, 2011). […] At 24, 72 or 144 hr, cells were incubated for an additional 16 hr with 0.037 MBq/well of [^3H]thymidine (Amersham), and then harvested onto glass fibre filter mats using a 96-well plate automated Tomtec cell harvester (Receptor Technologies) and analysed by liquid scintillation spectroscopy with a LKB Wallac Trilux Microbeta 3 b-counter (PerkinElmer). Values were expressed as the percentage of the counts per minute (cpm) measured in the treated cultures relative to the cpm measured in the respective untreated cultures. […]

[3] = test system: medullary KMS-12 multiple myeloma xenografts; type: in vivo, NOD/SCID mice; conditions: 29 mg/kg/day intermittent infusion over 8 weeks; experimental end-point day 161
Procedure: as §2, with “Mice were then randomized into treatment groups and treated by infusion for 8 weeks, as shown.” left out, “Additional details are provided in the Supplemental Experimental Procedures.” left out
For experiments in the medullary xenograft model, 6 to 8-week old male NOD/SCID mice (NOD.CB17-Prkdc^scid/IcrCrl; Charles River) were sub-lethally irradiated (3.50 Gy) and, then, injected intraperitoneally with purified anti-CD122 monoclonal antibody (200 μg/mouse), as above. […] Animals were monitored daily for weight loss and other clinical signs of medullary disease, such as hind limb paralysis and behavioural changes, and euthanized with CO2 on day 161 of treatment start or when the disease severity reached any of the end-points stated in the PPL. […]

KMS-12 cells = experiment: [3H]thymidine incorporation assay, DTP3 and bortezomib as single agents or in combination, KMS-12
Procedure: as §4
Viability data from the experiment shown in FIG. 12 were converted into values representing the fraction of cells affected (FA) equaling 0.5 in the drug-treated cultures compared with untreated cultures, and the interaction of DTP3 with bortezomib was analysed according to the Chou-Talalay method (Chou, 2006). Also shown are the drug concentrations giving the FA value of 0.5 and the description of the CI. Based on the Chou-Talalay equation (Chou, 2006), synergy is present when the CI is less than 1.0 (where values between 0.3 and 0.7 denote synergism, and values between 0.1 and 0.3 denote strong synergism); the combination is additive when CI equals 1.0, and antagonistic when it is more than 1.0 (Chou, 2006).
as §5
The activities of DTP3 and bortezomib in the U266 and KMS-12 myeloma cell lines, both as single agents and in combination, were determined using [^3H]thymidine incorporation assays, performed as described above in “Cell Proliferation, Cell Death, and Apoptosis Assays”. The IC50 values of bortezomib as single agent were determined at 48 hr using 9 concentrations of drug, ranging from 0.1 to 1,000 nM.

FIG. 14 = experiment: FIG. 14
Excerpt: Table printed on a drawing sheet, FIG. 14
Values denote means±SD (n=3).
First reader's note: Each cell holds the value ± error and its unit together.

[4] = 14.5 mg/kg/day continual infusion
[5] = 14.5 mg/kg/day, results not shown

CC(=O)N[C@H](Cc1ccc(O)cc1)C(=O)N[C@H](CCCNC(=N)N)C(=O)N[C@H](Cc1ccccc1)C(N)=O [DTP3, Acetyl-Tyr-Arg-Phe-NH2]
stability in human serum (plasma stability (human)): very high stability | side effects [1, 4]: absence of any apparent side effects | effect on established subcutaneous myeloma xenografts (tumour volume) [1, 4]: virtually eradicated | effect on established subcutaneous myeloma xenografts (tumour volume) ([1]; 14.5 mg/kg/day continual infusion, listed as DTP-3): dramatic shrinkage of the tumors | appearance of caspase-3 and PARP-1 proteolysis products in tumour [1, 5]: 3 days | appearance of phosphorylated JNK in tumour after onset of treatment [1, 5]: 24 h | level at time molar [2]: ~1000 nM | combination index (CI) with bortezomib (U266 cells): 0.21 | median OS [3]: > 161 days | combination index (CI) with bortezomib (KMS-12 cells; FA 0.5, DTP3 10 nM for 6 days, bortezomib last 48 hr, Chou-Talalay): 0.56 | description of the CI (KMS-12 cells; combination with bortezomib): synergism (values between 0.3 and 0.7 denote synergism) | CL (FIG. 14): 27.13 ± 4.09 mL/min/kg | Vd (FIG. 14): 2.80 ± 1.26 L/kg
